One compound from patent publication EP1985629A1, “Pro-apoptotic molecules and therapeutic uses thereof” (UNIVERSITA DEGLI STUDI DI GENOVA, priority 2007, dated 2008) can be followed below.

Each structure is given as a SMILES string. pKd: −log10 of the molar value. Where a SMILES comes first, the peptide text is derived from it. [ ]: non-standard residue; d: D form. Aib = CC(C)(N)C(=O)O

In assay [1] the target is T1, Bcl-XL (Homo sapiens, UniProt Q07817, S2L).
T1 construct: with the C-terminus truncated; His6; made in house; host or cells: Escherichia coli BL21 (pLys)
Nature of the assay: Fluorescence anisotropy binding and competition binding assay. The conditions noted are these: competition binding assay: BakF-BH3 2E-8 M, competitor peptide 2E-7 M, Bcl-XL 2E-8 M to 1E-6 M; 45 min, 30°C; read-out: Weighted mean Kd. As for the experimental part: Fluorescence Anisotropy was monitored with a Polarion Instrument (Tecan, Austria): excitation wavelength = 485 nm, emission wavelength = 535 nm. […] Anisotropy values were studied at a fixed concentration of fluoresceinated Bak BH3 molecule (2E-8 M), a fixed concentration of peptide inhibitors (2E-7 M) and increasing concentrations of Bel-XL (from 2E-8 M to 1E-6 M). Experiments were performed in 96-wells black non-binding plates (Corning), the experimental volume was always 200 µl / well. Reagents were mixed at room temperature and maintained at a constant temperature (30°C) during the measurements. Anisotropy measurements were performed at different times of incubation to assess the stability of the reactions. […]
For simple binding experiments we evaluated the Kd using a nonlinear regression analysis [NLIN SAS] to fit the Lundblad equation [38]. […]
We calculated the expected Anisotropy value solving a third degree equation obtained extending the simple binding equation to a competitive binding inhibition assay. […]
Point estimates of each equilibrium constant were evaluated using meta-analytical tools weighting each experimental result for its estimated variance. […]
Fluorescence Anisotropy (FA) is a quantitative technique to analyze the interaction of a smaller fluorescent molecule with a larger non fluorescent molecule. […]

Assay [2] relates to U937 cell line. The assay is described as follows: Cell growth, cell counts (trypan blue exclusion). Format: cell-based, human. The conditions noted are these: U937, 1 µM up to 30 µM, four days. Here is the method:
(§1) • Figure 1 Fluorescence Anisotropy Assay. Average anisotropy values: (open square) binding assay for increasing concentrations of Bcl-XL at a fixed concentration of fluorescent Bak-BH3 peptide. […] The error bars represent standard deviations observed from triplicate experiments. • Figure 2 072RB: cell growth effects. Panel A: Cell growth of U937 cell line treated for four days every 24 h at a 1 µM 072RB concentration and every 48 h at 3, 5, 10 and 30 µM 072RB concentrations. U937 controls at day 4, cell number: 350,000 ±50,000. Number of cells seeded at day 0: 20,000. Arrows indicate treatment time. […] All cells were counted in a Burker chamber and values are expressed as percentage of the untreated control cell number. Only living cells identified by trypan blue exclusion staining were counted. […] Flow cytometry measurements of DNA content (evaluated by propidium iodide (PI) fluorescence intensity) and physical cell side-scattering (evaluated by SSC) in U937 cells treated with Int and 072RB at 10 µM, twice each 48h. […] Three main cell populations can be observed in the bivariate PI/SSC plots, one with low SSC and normal DNA content (that accounts for "live" cells in culture), another with high SSC and normal DNA content (cells undergoing "early stage of apoptosis") and another one with lower PI fluorescence (cells at "late stage of apoptosis" and debris). […]

Assay [3] has as its system U937, Jurkat, Namalwa. The assay is described as follows: Cell growth, cell counts (trypan blue exclusion), three cell lines. Format: cell-based, human. The conditions noted are these: 10 µM, twice every 48 h, four days. Here is the method: as §1
The test system of assay [4] is U937 and Jurkat cell lines. Nature of the assay: Detection of mitochondrial permeability transition (DiOC6 fluorescence). The conditions noted are these: two cell lines, 4 days, 5 and 10 µM, two independent experiments. Format: cell-based, human.
Assay [5] deals with Namalwa cells. Nature of the assay: Morphologic analysis of apoptosis (PI, confocal microscopy). Format: cell-based, human. The note with it: PI labeled Namalwa cells; and 48 h (072RB), 48 h (Int). Here is the method: After extensive washes, samples were incubated with PI (50µg/ml in PBS) and 100 units/ml Rnase type A and 10 mM EDTA (to inactivate endogenous nucleases) for 15 min at room temperature. After three washes, cells were put on a micro-slide, covered with a coverslip and analysed with an IX81 microscope equipped with He-Neon […] laser, suitable for PI fluorescence excitation (FV500, Olympus BioSystem). 10-15 fields were analysed with 40x oil/1.35NA or 60x oil/1.40NA objectives and images acquired with the Flowview 4.2b computer program.

T1 sequence (Q07817 1-212 S2L): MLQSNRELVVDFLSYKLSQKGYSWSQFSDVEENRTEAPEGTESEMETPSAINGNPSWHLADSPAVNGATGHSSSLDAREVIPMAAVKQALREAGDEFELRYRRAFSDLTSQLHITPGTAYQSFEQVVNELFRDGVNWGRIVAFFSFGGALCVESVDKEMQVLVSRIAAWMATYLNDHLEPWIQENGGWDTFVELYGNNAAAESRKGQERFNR

Usually pKd stands for the Kd on a negative log10 scale, so that one unit is a factor of ten. Consider `CC[C@H](C)[C@H](NC(=O)[C@H](CCCNC(=N)N)NC(=O)[C@H](CCCNC(=N)N)NC(=O)[C@H](CC(C)C)NC(=O)[C@H](CCC(=O)O)NC(=O)[C@H](CCC(N)=O)NC(=O)C(C)(C)NC(=O)[C@@H](NC(=O)[C@H](Cc1ccc(O)cc1)NC(=O)[C@@H](NC(=O)[C@H](CCC(=O)O)NC(=O)[C@@H]1CCCN1C(=O)[C@H](CCCNC(=N)N)NC(=O)[C@H](CCSC)NC(=O)[C@@H](N)CC(=O)O)[C@@H](C)CC)[C@@H](C)CC)C(=O)NCC(=O)N[C@@H](CC(=O)O)C(=O)N[C@@H](C)C(=O)N[C@@H](Cc1ccccc1)C(=O)N[C@@H](CC(N)=O)C(=O)NC(C)(C)C(=O)N[C@@H](Cc1ccc(O)cc1)C(=O)N[C@@H](CCCCN)C(=O)N[C@@H](CCCCN)C(=O)N[C@@H](Cc1c[nH]c2ccccc12)C(=O)N[C@@H](CCCCN)C(=O)N[C@@H](CCSC)C(=O)N[C@@H](CCCNC(=N)N)C(=O)N[C@@H](CCCNC(=N)N)C(=O)N[C@@H](CC(N)=O)C(=O)N1CCC[C@H]1C(=O)N[C@@H](Cc1ccccc1)C(=O)N[C@@H](Cc1c[nH]c2ccccc12)C(=O)N[C@H](C(=O)N[C@@H](CCCCN)C(=O)N[C@H](C(=O)N[C@@H](CCC(N)=O)C(=O)N[C@@H](CCCNC(=N)N)C(N)=O)[C@@H](C)CC)[C@@H](C)CC` [Peptide 072RB] (H-DMRPEIYI[Aib]QELRRIGDAFN[Aib]YKKWKMRRNPFWIKIQR-NH2; N-terminus and C-terminus assumed), for which the negative logarithm of the Kd (pKd) in assay [1] was 8.37. Besides, the “cell growth (cell counts)” value in assay [2] is “dose-dependent inhibition of cell growth”. Also, the “cell growth compared to control cultures” value in assay [3] is reported as “progressive decrease of cell growth”. In addition, in assay [4], the “MPT (reduced DiOC6 fluorescence)” value is given as “clear MPT effects”. In assay [5], the “chromatin condensation and apoptotic body formation” value was “exhibited chromatin condensation and apoptotic body formation”.
